Laboratory results published in publication PMC6278539, “Selective Inhibition of Human AKR1B10 by n-Humulone, Adhumulone and Cohumulone Isolated from Humulus lupulus Extract” (Molecules, 2018).

Assays:
[1] = target: AKR1B10; parameters: method as in PMID 27665999; conditions: cited from earlier work
[2] = target: T1, AKR1B1 (Homo sapiens, UniProt P15121); test: AKR1B1 inhibition, DL-glyceraldehyde reduction (NADPH decrease at 340 nm); format: biochemical; conditions: AKR1B1, Glyceraldehyde [50 µM]
T1 construct: 6xHis; made in house; host or cells: E. coli BL21 (DE3)
Experimental: (§1) The carbonyl-reducing enzymes AKR1A1, AKR1B1, AKR1B10 were prepared in an Escherichia coli expression system according to previously published methods: plasmids of AKR1A1 and AKR1B1 were friendly gifts from Prof. Dr. Vladimir Wsol and Dr. Nina Kassner; information about production and purification of AKR1B10 [19] has been published before (sequences of all obtained plasmids containing the specific inserts were verified by sequencing (MWG Eurofins)). The plasmids were then transformed in E. coli BL21 (DE3) cells. For overexpression of 6× His-tagged enzymes, a 400 mL culture (containing the appropriate antibiotic; plasmid dependent) was grown to optical density of 0.6 at 600 nm at 37 °C. Expression was induced by adding isopropyl-1-thio-galactopyranoside to the culture medium (final concentration of 1 mM). After 3 h, cells were harvested by centrifugation (6000× g, 15 min) and resuspended in 20 mL PBS-I buffer (20 mM Na2H2PO4, 500 mM NaCl, 10 mM imidazole, 10% v/v glycerol, pH 7.4). Cell disruption was performed by ultrasonication with cooling on ice to avoid heating. […] Purification progress was monitored by SDS-PAGE of the obtained fractions (not shown). Enzyme concentrations were determined using a Qubit 2.0 fluorometric quantitation system (Life Technologies, Carlsbad, CA, USA) according to the manufacturer’s instructions.
(§2) Catalytic properties were determined by measuring the decrease in absorbance at 340 nm (Cary 100 scan photometer, Varian, CA, USA). […]
(§3) For inhibition studies, stock solutions of inhibitors were prepared in H2O (iso-α-acid mixture) and DMSO (α-acid mixture and compounds 1–3 purified from the same mixture). […] The percentage of inhibition was calculated considering the activity in the absence of inhibitor to be 100%. […]
For IC50 determination, experimental data were normalised and fitted to a sigmoidal curve as implemented in GraphPad Prism6 (GraphPad Software Inc., La Jolla, CA, USA). Whenever tight-binding inhibition was observed, the inhibition constant Ki was determined by fitting inhibition data to the Morrison equation [43]. […]

[3] = target: T2, AKR1B10 (Homo sapiens, UniProt O60218); test: AKR1B10 inhibition, DL-glyceraldehyde reduction (NADPH decrease at 340 nm); format: biochemical; conditions: for IC50 / Ki: AKR1B10, Glyceraldehyde [4.0 mM], mean ± SD; for Ki: read-out: Ki (Morrison); for Ratio AKR1A1/AKR1B10 / Ratio AKR1B1/AKR1B10: IC50-ratio, glyceraldehyde as substrate
T2 construct: 6xHis; made in house; host or cells: E. coli BL21 (DE3)
Experimental: (§4) The carbonyl-reducing enzymes AKR1A1, AKR1B1, AKR1B10 were prepared in an Escherichia coli expression system according to previously published methods: plasmids of AKR1A1 and AKR1B1 were friendly gifts from Prof. Dr. Vladimir Wsol and Dr. Nina Kassner; information about production and purification of AKR1B10 [19] has been published before (sequences of all obtained plasmids containing the specific inserts were verified by sequencing (MWG Eurofins)). The plasmids were then transformed in E. coli BL21 (DE3) cells. For overexpression of 6× His-tagged enzymes, a 400 mL culture (containing the appropriate antibiotic; plasmid dependent) was grown to optical density of 0.6 at 600 nm at 37 °C. Expression was induced by adding isopropyl-1-thio-galactopyranoside to the culture medium (final concentration of 1 mM). After 3 h, cells were harvested by centrifugation (6000× g, 15 min) and resuspended in 20 mL PBS-I buffer (20 mM Na2H2PO4, 500 mM NaCl, 10 mM imidazole, 10% v/v glycerol, pH 7.4). Cell disruption was performed by ultrasonication with cooling on ice to avoid heating. The sample was subsequently centrifuged at 100,000× g at 4 °C for 1 h. The obtained supernatants containing the respective enzymes were purified using Ni-affinity chromatography (ÄKTA-Purifier; Amersham Pharmacia, Uppsala, Sweden) using PBS-II buffer (20 mM Na2H2PO4, 500 mM NaCl, 500 mM imidazole, 10% v/v glycerol, pH 7.4). Purification progress was monitored by SDS-PAGE of the obtained fractions (not shown). Enzyme concentrations were determined using a Qubit 2.0 fluorometric quantitation system (Life Technologies, Carlsbad, CA, USA) according to the manufacturer’s instructions.
(§5) Catalytic properties were determined by measuring the decrease in absorbance at 340 nm (Cary 100 scan photometer, Varian, CA, USA). A reaction mixture without inhibitor consisted of different concentrations of DL-glyceraldehyde or farnesal, 200 μM NADPH, 0.1 M NaH2PO4 buffer (pH 7.4) and an appropriate amount of enzyme in a total assay volume of 0.8 mL. Final enzyme concentrations in the assay ranged from 222 nM (AKR1A1) to 899 nM (AKR1B10). KM values were obtained by fitting the kinetic data (mean ± SD from at least three experiments) to the Michaelis‒Menten model, as implemented in GraphPad Prism6 (GraphPad Software Inc., La Jolla, CA, USA).
(§6) For inhibition studies, stock solutions of inhibitors were prepared in H2O (iso-α-acid mixture) and DMSO (α-acid mixture and compounds 1–3 purified from the same mixture). […] When collecting data for dose–response curves initial velocities of DL-glyceraldehyde or farnesal reduction (substrate concentration at KM) in the presence of inhibitors were assayed as described above. The percentage of inhibition was calculated considering the activity in the absence of inhibitor to be 100%.
Initially, the half maximal inhibitory concentrations (IC50 values) were determined for each inhibitor in presence of each enzyme, using the shared substrate DL-glyceraldehyde (set to their specific KM; 3.6 mM, 50 μM and 4 mM for AKR1A1, AKR1B1 and AKR1B10, respectively) to assess specificity amongst the structurally similar members of the AKR-superfamily.
For IC50 determination, experimental data were normalised and fitted to a sigmoidal curve as implemented in GraphPad Prism6 (GraphPad Software Inc., La Jolla, CA, USA). Whenever tight-binding inhibition was observed, the inhibition constant Ki was determined by fitting inhibition data to the Morrison equation [43]. In order to verify the inhibitory potency, farnesal as an enzyme-specific physiological substrate for AKR1B10 (farnesal; KM = 5 µM) was used to determine inhibition parameters. Enzyme inhibition parameters were assayed as described above. The inhibition mechanism of each compound for AKR1B10 was analysed by plotting IC50-values at different substrate concentrations (at least five inhibitor and substrate concentrations). […]

[4] = target: T2, AKR1B10; test: AKR1B10-mediated farnesal reduction inhibition; format: biochemical; conditions: for IC50 / Ki: AKR1B10, Farnesal [5 µM], mean ± SD; for Mode of inhibition: AKR1B10, farnesal reduction
Experimental: as §4, §5, §6
For IC50 determination, experimental data were normalised and fitted to a sigmoidal curve as implemented in GraphPad Prism6 (GraphPad Software Inc., La Jolla, CA, USA). Whenever tight-binding inhibition was observed, the inhibition constant Ki was determined by fitting inhibition data to the Morrison equation [43]. In order to verify the inhibitory potency, farnesal as an enzyme-specific physiological substrate for AKR1B10 (farnesal; KM = 5 µM) was used to determine inhibition parameters. Enzyme inhibition parameters were assayed as described above. The inhibition mechanism of each compound for AKR1B10 was analysed by plotting IC50-values at different substrate concentrations (at least five inhibitor and substrate concentrations). All data obtained were plotted and analysed using GraphPad Prism6 (GraphPad Software Inc., La Jolla, CA, USA).

[5] = tested on: AKR1B10; parameters: method as in PMID 23123477; conditions: cited from earlier work
[6] = tested on: cyclooxygenase-1; parameters: method as in PMID 10631313; conditions: cited from earlier work
[7] = target: cyclooxygenase-2; parameters: method as in PMID 10631313; conditions: cited from earlier work
[8] = target: T3, AKR1A1 (Homo sapiens, UniProt P14550); test: AKR1A1 inhibition, DL-glyceraldehyde reduction (NADPH decrease at 340 nm); format: biochemical; conditions: AKR1A1, Glyceraldehyde [3.6 mM]
T3 construct: 6xHis; made in house; host or cells: E. coli BL21 (DE3)
T3 sequence (P14550 1-325): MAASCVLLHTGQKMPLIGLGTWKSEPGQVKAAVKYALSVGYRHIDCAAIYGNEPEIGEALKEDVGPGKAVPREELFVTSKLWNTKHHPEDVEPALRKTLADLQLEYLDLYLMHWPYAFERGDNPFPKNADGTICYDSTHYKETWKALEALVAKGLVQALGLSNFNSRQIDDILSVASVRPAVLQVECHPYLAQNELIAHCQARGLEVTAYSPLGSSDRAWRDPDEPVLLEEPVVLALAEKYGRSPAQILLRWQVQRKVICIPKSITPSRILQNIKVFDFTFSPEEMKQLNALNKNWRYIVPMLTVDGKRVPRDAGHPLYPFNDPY
Experimental: as §1, with “°C.” for “°C. Expression was induced by adding isopropyl-1-thio-galactopyranoside to the culture medium (final concentration of 1 mM). After 3 h, cells were harvested by centrifugation (6000× g, 15 min) and resuspended in 20 mL PBS-I buffer (20 mM Na2H2PO4, 500 mM NaCl, 10 mM imidazole, 10% v/v glycerol, pH 7.4). Cell disruption was performed by ultrasonication with cooling on ice to avoid heating.”
as §2, §3

T2 sequence (O60218 whole entry): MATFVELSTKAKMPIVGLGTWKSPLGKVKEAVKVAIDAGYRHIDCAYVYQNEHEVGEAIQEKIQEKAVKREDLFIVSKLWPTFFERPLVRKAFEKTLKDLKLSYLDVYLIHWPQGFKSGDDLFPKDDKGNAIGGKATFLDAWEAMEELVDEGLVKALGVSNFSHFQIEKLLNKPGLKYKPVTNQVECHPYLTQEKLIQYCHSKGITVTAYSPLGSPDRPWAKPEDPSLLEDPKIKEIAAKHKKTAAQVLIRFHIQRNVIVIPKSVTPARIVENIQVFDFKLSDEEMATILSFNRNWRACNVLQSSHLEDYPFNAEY

IC50 [2] [µM] | IC50 [3] [µM] | Ki [3] [µM] | Ratio AKR1A1/AKR1B10 [3] | Ratio AKR1B1/AKR1B10 [3] | IC50 [4] [µM] | Ki [4] [µM] | Mode of inhibition [4] | Structure (SMILES) | Ki [1] [µM] | IC50 [5] [µM] | inhibition of cyclooxygenase-1 [6] | IC50 [7] [µM] | IC50 [8] [µM]
– | – | – | – | – | – | – | – | CCCCC/C=C\C/C=C\C/C=C\C/C=C\CCCC(=O)O [arachidonic acid] | 0.26 | – | – | – | –
> 125 | 5.41 ± 0.42 | 3.27 ± 0.52 | ≥19 | >23 | 29.3 ± 1.53 | 16.8 ± 1.33 | competitive | CCC(C)C(=O)C1=C(O)C(CC=C(C)C)=C(O)[C@](O)(CC=C(C)C)C1=O (stereo partly drawn) [Compound 1, adhumulone] | – | – | – | – | –
– | – | – | – | – | – | – | – | CC(C)=CCc1c(O)cc2oc3cc(O)c(O)c(CC=C(C)C)c3c(=O)c2c1O [γ-mangostin] | – | 0.018 | – | – | –
> 125 | 1.35 ± 0.07 | 0.7 ± 0.09 | >74 | >93 | 29.8 ± 1.72 | 16.5 ± 1.74 | non-competitive | CC(C)=CCC1=C(O)C(O)(CC=C(C)C)C(=O)C(C(=O)C(C)C)=C1O (stereo in doubt) [Compound 2, cohumulone] | – | – | – | – | > 100

Structure (SMILES) | IC50 [2] [µM] | IC50 [3] [µM] | Ki [3] [µM] | Ratio AKR1A1/AKR1B10 [3] | Ratio AKR1B1/AKR1B10 [3] | IC50 [4] [µM] | Ki [4] [µM] | Mode of inhibition [4] | Ki [1] [µM] | IC50 [5] [µM] | inhibition of cyclooxygenase-1 [6] | IC50 [7] [µM] | IC50 [8] [µM]
CC(C)=CCC1C(=O)C(C(=O)CC(C)C)=C(O)C(O)(CC=C(C)C)C1=O (stereo not drawn) [Compound 3, n-humulone] | > 125 | 1.94 ± 0.1 | 0.98 ± 0.12 | >52 | >64 | 7.78 ± 0.43 | 3.94 ± 0.33 | non-competitive | – | – | not inhibited at concentrations below 10 µM | 1.6 | > 100
